{"source": "patent US20260256792A1", "about": "“TREATMENT OF CHRONIC SPONTANEOUS URTICARIA BY ADMINISTERING (R)-2-[3-[4-AMINO-3-(2-FLUORO-4-PHENOXY-PHENYL)PYRAZOLO[3,4-D]PYRIMIDIN-1-YL]PIPERIDINE-1-CARBONYL]-4-METHYL-4-[4-(OXETAN-3-YL)PIPERAZIN-1-YL]PENT-2-ENENITRILE” (priority 2023, published 2026)", "test_system": "moderate-to-severe chronic spontaneous urticaria (CSU)", "assay": "Phase 2 CSU study: urticaria activity score over 7 days (UAS7)", "type": "in vivo, human", "conditions": "for Change from Baseline in UAS7 at Week 12: Mean (SD) / Change from Baseline in UAS7 at Week 12: LS Mean Diff vs. placebo (95% CI) / Change from Baseline in UAS7 at Week 12: LS Mean (SE): Omalizumab-Naïve; for Imputed non-responder n (%), UAS7 = 0 / Imputed non-responder n (%), UAS7 ≤6 / Non-responder n (%), UAS7 = 0 / Non-responder n (%), UAS7 ≤6 / OR for rilzabrutinib vs. placebo, UAS7 = 0 / OR for rilzabrutinib vs. placebo, UAS7 ≤6 / RRD (%) for rilzabrutinib vs. placebo, UAS7 = 0 / RRD (%) for rilzabrutinib vs. placebo, UAS7 ≤6 / Responder n (%), UAS7 = 0 / Responder n (%), UAS7 ≤6: Omalizumab-naïve", "excerpt": "The study comprises a 12 week, randomized, double-blind, placebo-controlled, multi-center, dose-ranging efficacy and safety phase, followed by a 40 week open label extension (OLE) phase (see FIG. 1). The study consists of three phases and an optional OLE phase. […] Clinically, CSU is characterized by the spontaneous and recurrent appearance of pruritic hives. The proposed primary endpoints were the UAS7 at Week 12 in EU and EU reference countries and the ISS7 in the US. Regardless of where a participant was from, all assessments were the same. The UAS7 score is a composite score containing both the HSS7 and the ISS7. This allowed a global assessment of the two key components of urticaria: hives and itch. […] The UAS is a validated PRO measure. […] The daily UAS scores range from 0 to 6 point/day. […] Patients were to complete the UAS using the e-diary. […] The following secondary endpoints were to be analyzed using the same approach as for the primary endpoint: • Change from baseline in UAS7 at Week 4 • Change from baseline in UAS7 at Week 12 (for US and US reference countries) • Change from baseline in ISS7 at Week 12 (except US and US reference countries) • Change from baseline in HSS7 at Week 12 The following responder secondary endpoints were to be analyzed using the Cochran-Mantel-Haenszel test adjusted by region: • Proportion of participants with UAS7<6 at Week 12 • Proportion of participants with UAS7=0 at Week 12 Participants who received selected prohibited medications and/or rescue medications were to be considered as non-responders for time points after the medication usage. For other participants, all available data including those collected during the off-treatment period were to be used to determine the responder/non-responder status. Missing data were to be considered as non-responders.", "key": {"[1]": {"conditions": "Region Latin America, 400 mg TID"}, "[2]": {"conditions": "Region Western Countries, 400 mg BID"}, "[3]": {"conditions": "Region Western Countries, 400 mg QPM"}, "[4]": {"conditions": "Region Western Countries, 400 mg TID"}}}
{"smiles": "CC(C)(C=C(C#N)C(=O)N1CCC[C@@H](n2nc(-c3ccc(Oc4ccccc4)cc3F)c3c(N)ncnc32)C1)N1CCN(C2COC2)CC1", "note": "[rilzabrutinib, (R)-2-[3-[4-amino-3-(2-fluoro-4-phenoxy-phenyl)pyrazolo[3,4-d]pyrimidin-1-yl]piperidine-1-carbonyl]-4-methyl-4-[4-(oxetan-3-yl)piperazin-1-yl]pent-2-enenitrile]", "values": [{"measurement": "Change from Baseline in UAS7 at Week 12: Mean (SD)", "setting": "Region Latin America, 400 mg QPM", "result": "−13.28 (10.78)"}, {"measurement": "Change from Baseline in UAS7 at Week 12: LS Mean Diff vs. placebo (95% CI)", "setting": "[1]", "result": "0.38 (−10.12, 10.88)"}, {"measurement": "Change from Baseline in UAS7 at Week 12: Mean (SD)", "setting": "[1]", "result": "−14.07 (12.07)"}, {"measurement": "Change from Baseline in UAS7 at Week 12: LS Mean (SE)", "setting": "[2]", "result": "−20.19 (3.23)"}, {"measurement": "Change from Baseline in UAS7 at Week 12: LS Mean Diff vs. placebo (95% CI)", "setting": "[2]", "result": "−12.21 (−21.37, −3.06)"}, {"measurement": "Change from Baseline in UAS7 at Week 12: Mean (SD)", "setting": "[2]", "result": "−20.62 (10.65)"}, {"measurement": "Change from Baseline in UAS7 at Week 12: LS Mean (SE)", "setting": "[3]", "result": "−8.74 (4.03)"}, {"measurement": "Change from Baseline in UAS7 at Week 12: Mean (SD)", "setting": "[3]", "result": "−10.70 (8.61)"}, {"measurement": "Change from Baseline in UAS7 at Week 12: LS Mean (SE)", "setting": "[4]", "result": "−19.49 (3.03)"}, {"measurement": "Change from Baseline in UAS7 at Week 12: Mean (SD)", "setting": "[4]", "result": "−23.13 (10.61)"}, {"measurement": "Imputed non-responder n (%), UAS7 = 0", "setting": "400 mg BID, Week 1", "result": "0 n (%)"}, {"measurement": "Imputed non-responder n (%), UAS7 ≤6", "setting": "400 mg BID, Week 1", "result": "0 n (%)"}, {"measurement": "Non-responder n (%), UAS7 = 0", "setting": "400 mg BID, Week 1", "result": "32 (91.4) n (%)"}, {"measurement": "Non-responder n (%), UAS7 ≤6", "setting": "400 mg BID, Week 1", "result": "29 (82.9) n (%)"}, {"measurement": "OR for rilzabrutinib vs. placebo, UAS7 = 0", "setting": "400 mg BID, Week 1", "result": 3.242}, {"measurement": "OR for rilzabrutinib vs. placebo, UAS7 ≤6", "setting": "400 mg BID, Week 1", "result": 3.183}, {"measurement": "RRD (%) for rilzabrutinib vs. placebo, UAS7 = 0", "setting": "400 mg BID, Week 1", "result": 5.6, "unit": "%"}, {"measurement": "RRD (%) for rilzabrutinib vs. placebo, UAS7 ≤6", "setting": "400 mg BID, Week 1", "result": 9.9, "unit": "%"}, {"measurement": "Responder n (%), UAS7 = 0", "setting": "400 mg BID, Week 1", "result": "3 (8.6) n (%)"}, {"measurement": "Responder n (%), UAS7 ≤6", "setting": "400 mg BID, Week 1", "result": "6 (17.1) n (%)"}, {"measurement": "Imputed non-responder n (%), UAS7 = 0", "setting": "400 mg BID, Week 2", "result": "1 (2.9) n (%)"}, {"measurement": "Imputed non-responder n (%), UAS7 ≤6", "setting": "400 mg BID, Week 2", "result": "1 (2.9) n (%)"}, {"measurement": "Non-responder n (%), UAS7 = 0", "setting": "400 mg BID, Week 2", "result": "33 (94.3) n (%)"}, {"measurement": "Non-responder n (%), UAS7 ≤6", "setting": "400 mg BID, Week 2", "result": "31 (88.6) n (%)"}, {"measurement": "OR for rilzabrutinib vs. placebo, UAS7 = 0", "setting": "400 mg BID, Week 2", "result": 2.024}, {"measurement": "OR for rilzabrutinib vs. placebo, UAS7 ≤6", "setting": "400 mg BID, Week 2", "result": 1.917}, {"measurement": "RRD (%) for rilzabrutinib vs. placebo, UAS7 = 0", "setting": "400 mg BID, Week 2", "result": 2.5, "unit": "%"}, {"measurement": "RRD (%) for rilzabrutinib vs. placebo, UAS7 ≤6", "setting": "400 mg BID, Week 2", "result": 4.4, "unit": "%"}, {"measurement": "Responder n (%), UAS7 = 0", "setting": "400 mg BID, Week 2", "result": "2 (5.7) n (%)"}, {"measurement": "Responder n (%), UAS7 ≤6", "setting": "400 mg BID, Week 2", "result": "4 (11.4) n (%)"}, {"measurement": "Imputed non-responder n (%), UAS7 = 0", "setting": "400 mg BID, Week 3", "result": "0 n (%)"}, {"measurement": "Imputed non-responder n (%), UAS7 ≤6", "setting": "400 mg BID, Week 3", "result": "0 n (%)"}, {"measurement": "Non-responder n (%), UAS7 = 0", "setting": "400 mg BID, Week 3", "result": "32 (91.4) n (%)"}, {"measurement": "Non-responder n (%), UAS7 ≤6", "setting": "400 mg BID, Week 3", "result": "27 (77.1) n (%)"}, {"measurement": "OR for rilzabrutinib vs. placebo, UAS7 = 0", "setting": "400 mg BID, Week 3", "result": 3.036}, {"measurement": "OR for rilzabrutinib vs. placebo, UAS7 ≤6", "setting": "400 mg BID, Week 3", "result": 2.894}, {"measurement": "RRD (%) for rilzabrutinib vs. placebo, UAS7 = 0", "setting": "400 mg BID, Week 3", "result": 5.0, "unit": "%"}, {"measurement": "RRD (%) for rilzabrutinib vs. placebo, UAS7 ≤6", "setting": "400 mg BID, Week 3", "result": 13.3, "unit": "%"}, {"measurement": "Responder n (%), UAS7 = 0", "setting": "400 mg BID, Week 3", "result": "3 (8.6) n (%)"}, {"measurement": "Responder n (%), UAS7 ≤6", "setting": "400 mg BID, Week 3", "result": "8 (22.9) n (%)"}, {"measurement": "Imputed non-responder n (%), UAS7 = 0", "setting": "400 mg BID, Week 4", "result": "2 (5.7) n (%)"}, {"measurement": "Imputed non-responder n (%), UAS7 ≤6", "setting": "400 mg BID, Week 4", "result": "2 (5.7) n (%)"}, {"measurement": "Non-responder n (%), UAS7 = 0", "setting": "400 mg BID, Week 4", "result": "32 (91.4) n (%)"}, {"measurement": "Non-responder n (%), UAS7 ≤6", "setting": "400 mg BID, Week 4", "result": "25 (71.4) n (%)"}, {"measurement": "OR for rilzabrutinib vs. placebo, UAS7 = 0", "setting": "400 mg BID, Week 4", "result": 1.372}, {"measurement": "OR for rilzabrutinib vs. placebo, UAS7 ≤6", "setting": "400 mg BID, Week 4", "result": 2.950}, {"measurement": "RRD (%) for rilzabrutinib vs. placebo, UAS7 = 0", "setting": "400 mg BID, Week 4", "result": 1.9, "unit": "%"}, {"measurement": "RRD (%) for rilzabrutinib vs. placebo, UAS7 ≤6", "setting": "400 mg BID, Week 4", "result": 15.8, "unit": "%"}, {"measurement": "Responder n (%), UAS7 = 0", "setting": "400 mg BID, Week 4", "result": "3 (8.6) n (%)"}, {"measurement": "Responder n (%), UAS7 ≤6", "setting": "400 mg BID, Week 4", "result": "10 (28.6) n (%)"}, {"measurement": "Imputed non-responder n (%), UAS7 = 0", "setting": "400 mg BID, Week 5", "result": "2 (5.7) n (%)"}, {"measurement": "Imputed non-responder n (%), UAS7 ≤6", "setting": "400 mg BID, Week 5", "result": "2 (5.7) n (%)"}, {"measurement": "Non-responder n (%), UAS7 = 0", "setting": "400 mg BID, Week 5", "result": "31 (88.6) n (%)"}, {"measurement": "Non-responder n (%), UAS7 ≤6", "setting": "400 mg BID, Week 5", "result": "25 (71.4) n (%)"}, {"measurement": "OR for rilzabrutinib vs. placebo, UAS7 = 0", "setting": "400 mg BID, Week 5", "result": 4.254}, {"measurement": "OR for rilzabrutinib vs. placebo, UAS7 ≤6", "setting": "400 mg BID, Week 5", "result": 6.525}, {"measurement": "RRD (%) for rilzabrutinib vs. placebo, UAS7 = 0", "setting": "400 mg BID, Week 5", "result": 8.1, "unit": "%"}, {"measurement": "RRD (%) for rilzabrutinib vs. placebo, UAS7 ≤6", "setting": "400 mg BID, Week 5", "result": 21.1, "unit": "%"}, {"measurement": "Responder n (%), UAS7 = 0", "setting": "400 mg BID, Week 5", "result": "4 (11.4) n (%)"}, {"measurement": "Responder n (%), UAS7 ≤6", "setting": "400 mg BID, Week 5", "result": "10 (28.6) n (%)"}, {"measurement": "Imputed non-responder n (%), UAS7 = 0", "setting": "400 mg BID, Week 6", "result": "2 (5.7) n (%)"}, {"measurement": "Imputed non-responder n (%), UAS7 ≤6", "setting": "400 mg BID, Week 6", "result": "2 (5.7) n (%)"}, {"measurement": "Non-responder n (%), UAS7 = 0", "setting": "400 mg BID, Week 6", "result": "31 (88.6) n (%)"}, {"measurement": "Non-responder n (%), UAS7 ≤6", "setting": "400 mg BID, Week 6", "result": "26 (74.3) n (%)"}, {"measurement": "OR for rilzabrutinib vs. placebo, UAS7 = 0", "setting": "400 mg BID, Week 6", "result": 4.048}, {"measurement": "OR for rilzabrutinib vs. placebo, UAS7 ≤6", "setting": "400 mg BID, Week 6", "result": 1.743}]}
